Test results as given in patent US12428370B2, “Haloallylamine dual amine oxidase inhibitors” (Syntara Limited, priority 2020, dated 2025).

How the values were obtained:
[1] = target: T1, human recombinant SSAO/VAP-1 (Homo sapiens, UniProt Q16853); experiment: Inhibition of human recombinant SSAO/VAP-1 (Amplex Red fluorometric assay); assay type: biochemical; details: 30 min incubation, 37° C., benzylamine substrate
T1 construct: a cloned cDNA template corresponding to residues 34-763 of human SSAO/VAP-1; TEV cleavage site (N); made in house
T1 sequence (Q16853 34-763): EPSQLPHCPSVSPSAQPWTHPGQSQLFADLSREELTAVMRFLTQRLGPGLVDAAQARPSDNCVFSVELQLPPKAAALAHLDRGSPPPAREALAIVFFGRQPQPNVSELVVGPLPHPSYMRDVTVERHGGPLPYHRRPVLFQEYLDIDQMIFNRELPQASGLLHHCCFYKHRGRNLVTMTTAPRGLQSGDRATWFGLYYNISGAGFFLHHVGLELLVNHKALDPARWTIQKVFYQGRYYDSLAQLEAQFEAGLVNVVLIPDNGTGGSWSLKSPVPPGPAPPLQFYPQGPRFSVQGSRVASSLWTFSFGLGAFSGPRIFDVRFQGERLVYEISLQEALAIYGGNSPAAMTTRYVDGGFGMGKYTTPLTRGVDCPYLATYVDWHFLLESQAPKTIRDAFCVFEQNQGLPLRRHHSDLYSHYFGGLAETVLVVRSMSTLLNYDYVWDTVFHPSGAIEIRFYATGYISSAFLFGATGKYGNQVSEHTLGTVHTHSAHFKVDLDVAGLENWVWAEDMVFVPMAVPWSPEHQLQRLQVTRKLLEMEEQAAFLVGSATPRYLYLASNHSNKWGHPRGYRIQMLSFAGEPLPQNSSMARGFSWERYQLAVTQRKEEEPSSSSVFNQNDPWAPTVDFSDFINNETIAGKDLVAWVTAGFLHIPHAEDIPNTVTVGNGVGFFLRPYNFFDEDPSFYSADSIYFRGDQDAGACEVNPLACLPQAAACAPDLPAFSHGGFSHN
Description: Method to Determine the Ability of Compounds of Formula I to Inhibit Human Recombinant SSAO/VAP-1
Human recombinant SSAO/VAP-1 amine oxidase activity was determined using the method as described for monoamine oxidase, copper-containing amine oxidases and related enzymes (Holt A. and Palcic M., Nat. Protoc. 2006, 1, 2498-2505). Briefly, a cloned cDNA template corresponding to residues 34-763 of human SSAO/VAP-1, and incorporating a mouse Ig kappa (κ) signal sequence, N-terminal flag epitope tag and tobacco etch virus (TEV) cleavage site, was assembled in a mammalian expression vector (pLO-CMV) by Geneart AG. This vector containing human SSAO/VAP-1 residues was transfected into CHO-K1 glycosylation mutant cell line, Lec 8. A clone stably expressing human SSAO/VAP-1 was isolated and cultured in large scale. Active human SSAO/VAP-1 was purified and recovered using immunoaffinity chromatography. This was used as the source for SSAO/VAP-1 activity. A high-throughput colorimetric assay was developed using either 96 or 384 well format. Briefly, in a standard 96 well plate assay 50 μL of purified human SSAO/VAP-1 (0.25 μg/mL) in 0.1 M sodium phosphate buffer (pH 7.4) was added into each well. […] After 30 min incubation, 50 μL of the reaction mixture containing 600 μM benzylamine (Sigma Aldrich), 120 μM Amplex Red (Sigma Aldrich) and 1.5 U/mL horseradish peroxidase (Sigma Aldrich) prepared in 0.1 M sodium phosphate buffer (pH 7.4) were added to the corresponding well. The fluorescence unit (RFU) was read every 2.5 min for 30 min at 37° C. excitation 565 nm and emission 590 nm (Optima; BMG labtech). The slope of the kinetics for each well was calculated using MARS data analysis software (BMG labtech) and this value was used to deduce the IC50 value (Dotmatics).

[2] = test system: cytochrome P450 (1A2, 2B6, 2C8, 2C9, 2C19, 2D6, 3A4); 44 enzymes, receptors, ion channels and transporters; 13 common transporters; 7 cardiac ion channel …; experiment: Off-target profile (cytochrome P450, Safety Screen panel, Transporter panel, Cardiac Ion Channel panel); details: all assays: CYP at 30 μM, panels at 10 μM, cardiac ion channels up to 300 μM
Description: Assessment of the off-target profile of Compound 1 using standardized commercially available methods (available through contract research organizations such as Eurofins Panlabs Inc, (https://www.eurofinsdiscoveryservices.com/services/in-vitro-assays/) or Evotec SE, (https://www.evotec.com/en/execute/integrated-pre-clinical-development/adme)).
The potential for off-target promiscuity in vivo was evaluated in vitro using the following assays:
Inhibition of cytochrome P450 activity (30 μM single concentration; 1A2, 2B6, 2C8, 2C9, 2C19, 2D6, 3A4)
Eurofins Discovery Safety Screen panel of 44 enzymes, receptors, ion channels and transporters (percentage inhibition at 10 μMconcentration).
Eurofins Transporter Protein Screen panel of 13 common transporters (percentage inhibition at 10 μM concentration).
Aptuit Cardiac Ion Channel panel of 7 targets (automated patch clamp assay; concentration 0 up to 300 μM).

phospholipidosis = experiment: Phospholipidosis cell-based fluorescence assay; details: concentrations up to 100 μM
Description: Assessment of the Potential of Compound 1 to Induce Phospholipidosis in a Cell-Based Fluorescence Assay.
Compound 1 was tested in vitro for the potential to induce phospholipidosis according to the method outlined by Fujimura et. al. (Experimental and Toxicologic Pathology, 2007, 58, 375-382) at concentrations up to 100 μM.

Recombinant human MAO-B = target: T2, Recombinant human MAO-B (Homo sapiens, UniProt P27338); experiment: Inhibition of human recombinant MAO-B; assay type: biochemical; details: incubation time of 2 hours, benzylamine 100 μM
T2 construct: purchased Sigma Aldrich
T2 sequence (P27338 1-520): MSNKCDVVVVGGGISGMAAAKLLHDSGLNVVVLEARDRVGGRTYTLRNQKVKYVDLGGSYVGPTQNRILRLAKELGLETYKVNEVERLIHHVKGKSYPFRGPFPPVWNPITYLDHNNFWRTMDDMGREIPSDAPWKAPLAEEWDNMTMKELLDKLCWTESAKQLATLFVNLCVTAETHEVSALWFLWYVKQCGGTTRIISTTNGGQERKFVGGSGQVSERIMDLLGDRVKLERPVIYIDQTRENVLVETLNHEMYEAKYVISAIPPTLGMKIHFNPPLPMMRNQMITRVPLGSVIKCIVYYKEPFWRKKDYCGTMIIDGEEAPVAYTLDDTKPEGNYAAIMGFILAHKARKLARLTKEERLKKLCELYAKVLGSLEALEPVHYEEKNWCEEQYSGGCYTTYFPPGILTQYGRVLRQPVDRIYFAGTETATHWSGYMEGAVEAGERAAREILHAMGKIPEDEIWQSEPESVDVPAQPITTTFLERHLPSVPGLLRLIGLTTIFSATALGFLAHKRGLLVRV
Description: Method to Determine the Ability of Compounds of Formula I to Inhibit Human Recombinant MAO-B
The ability of the compounds of this invention to inhibit MAO-B activities in vitro was tested. Recombinant human MAO-B (0.06 mg/mL; Sigma Aldrich) was used as source of MAO-B enzyme activities.

N#Cc1ccc(OC/C(=C/F)CN)cc1 [Compound 1, (E)-4-((2-(aminomethyl)-3-fluoroallyl)oxy) benzonitrile]
IC50 [1]: < 10 nM
off-target profile [2]: favorable off-target profile
effect on cell viability (phospholipidosis): no effect
effect on the cellular phenotype (phospholipidosis) (phospholipidosis): no effect
IC50 (Recombinant human MAO-B): < 50 nM
